Laboratory results reported in patent publication US8252832B2, “Kinesin inhibitors as cancer therapeutics” (Novartis AG, priority 2007, dated 2012).

Legend:
Experiment in all cases: Caspase-Glo 3/7 assay
Assay type in all cases: cell-based
Colo-205 = details: Homo sapiens
Source text: (§1) Identification of tumor types that are the most sensitive to the KSP inhibitors of the present invention can be accomplished using an unbiased approach that uses several cell-based assays. The assays chosen were as follows: • CellTiter-Glo®. This is an assay designed to measure ATP concentration in a cell culture, and can be correlated to cell number. Briefly CellTiter-Glo® (Promega Corporation) is a homogeneous method using the single CellTiter-Glo® reagent to detect ATP wherein ATP in the assay drives the activity of a thermostable luciferase to create a luminescent signal which can then be measured and correlated with the number of viable cells. Briefly, for adherent cells, 1,000 to 5,000 cells/well were plated in 96-well plates (100 μl/well) and let to adhere for 24 hours before being treated with drug. For non-adherent cells, 1,000 to 10,000 cells/well were plated in 96-well plates (100 μl/well) and immediately treated with drug. Drug dilutions were prepared in DMSO at 1000 times the final concentration. These dilutions were then diluted 1/100 in growth media before being added to the cells (11 μl/well) to achieve the desired final concentration. After 48 h in a 37° C. tissue culture incubator, the plates were processed for the CellTiter-Glo®assay according to the manufacturer's instructions. Protocol for a 72 hour cell proliferation assay: The 72 hour assay was performed the same way as the 48 hour assay except for the following modifications: For adherent cells, 500 to 5,000 cells/well were plated in 96-well plates (90 μl/well cell growth media) and left to adhere for 24 hours before being treated with drug. For non-adherent cells, 1,000 to 10,000 cells/well were plated in 96-well plates (90 μl/well cell growth media) and immediately treated with drug. Data values presented represent the concentration of test compound required for a 50% reduction in growth. • LDH release. The Cytotoxicity Detection KitPLUS (LDH) assay (Roche Diagnostics, Manheim, Germany) measures the amount of LDH released in the media by dying cells; LDH catalyzes the conversion of lactate into pyruvate. The enzymatic reaction is coupled to a chemical reaction that uses a tetrazolium salt to form a formazan that is red and can be detected by its absorbance at 490 nm. This assay measures the amount of cell death after drug treatment. Cells were plated at 10,000 cells/well in 96-well plates (100 μl/well). Adherent cells were let to adhere for 24 hours before being treated with drug, whereas non-adherent cells were immediately treated with drug. Drug dilutions were prepared in DMSO at 1000 times the final concentration. These dilutions were then diluted 1/100 in growth media before being added to the cells (11 μl/well) to achieve the desired final concentration. After 48 h in a 37° C. tissue culture incubator, the plates were processed for the Cytotoxicity Detection KitPLUS (LDH) assay according to the manufacturer's instructions. The media only values were subtracted from all the data points before analysis. Data values presented correspond to the compound concentration wherein LDH output is at half maximal level. • Caspase-Glo® 3/7. The Caspase-Glo® 3/7 Assay (Promega Corporation) is a homogeneous luminescent assay that measures caspase-3/7 activities. The assay provides a proluminescent caspase-3/7 DEVD-aminoluciferin substrate and a thermostable luciferase in a reagent optimized for caspase-3/7 activity, luciferase activity and cell lysis. Adding the single Caspase-Glo® 3/7 Reagent results in cell lysis, followed by caspase cleavage of the substrate. This liberates free aminoluciferin, which is consumed by the luciferase, generating a luminescent signal. The signal is proportional to caspase-3/7 activity. Data values presented correspond to the compound concentration wherein caspase 3/7 activity is at half maximal level.

HCT-116 = details: Homo sapiens
Source text: as §1

MV4; 11 = details: Homo sapiens
Source text: as §1

T47-D = details: Homo sapiens, T47D
Source text: as §1

## CC(C)(C)[C@H](c1nc(-c2cc(F)ccc2F)cn1Cc1ccccc1)N(CC[C@H](N)CF)C(=O)CO [Compound IIa]
Colo-205; Colo-205, 24 h
  EC50: 0.13 nM
Colo-205; Colo-205, 48 h
  EC50: 0.21 nM
Colo-205; Colo-205, 72 h
  EC50: 0.19 nM
HCT-116; HCT-116, 24 h
  EC50: 0.12 nM
HCT-116; HCT-116, 48 h
  EC50: 0.09 nM
MV4; 11; MV4;11, 24 h
  EC50: 0.02 nM
MV4; 11; MV4;11, 48 h
  EC50: 0.03 nM
T47-D; 48 h
  EC50: 0.39 nM
T47-D; 72 h
  EC50: 0.4 nM
